{
  "source": "patent US5268391A",
  "about": "“Propargyl-terminated cycloalkylalkyl-P2-site substituted aryl/alkylsulfonyl-terminated alanine amino-diol compounds for treatment of hypertension” (C. D. Searle & Co., priority 1992, dated 1993)",
  "origin": "cited, not measured here",
  "tested_on": "hog renin",
  "conditions": "after the injection of hog renin into nephrectomized rats",
  "note": "Where a SMILES comes first, the peptide text is derived from it. [ ]: non-standard residue; d: D form. The star is where a group is joined. Sta = CC(C)C[C@H](N)[C@@H](O)CC(=O)O; Isovaleryl = CC(C)CC(=O)*",
  "data": [
    {"smiles": "CC(C)CC(=O)N[C@H](C(=O)N[C@H](C(=O)N[C@@H](CC(C)C)[C@@H](O)CC(=O)N[C@@H](C)C(=O)N[C@@H](CC(C)C)[C@@H](O)CC(=O)O)C(C)C)C(C)C", "note": "[pepstatin] (Isovaleryl-VV[Sta]A[Sta]-OH)", "values": [
      {"measurement": "blood pressure in vivo", "result": "reduce blood pressure"}
    ]}
  ]
}
